Measured values: patent US9441012B2, “Fluorinated epoxyketone-based compounds and uses thereof as proteasome inhibitors” (FLUORINOV PHARMA INC., priority 2012, dated 2016)

Key:
[1] = system: RXF 393; assay: NCI 60 human tumor cell line screen (SRB); format: cell-based; details: RXF 393 (Renal Cancer); 48 h
[2] = system: MOLT-4; assay: NCI 60 human tumor cell line screen (SRB); format: cell-based; details: MOLT-4 (Leukemia); 48 h
[3] = system: chymotrypsin-like (CT-L) proteasome activity, KMS-11; assay: Proteasome enzymatic activity (tumor cell lysates); format: biochemical, human; details: KMS-11 cell lysate; mean ± standard deviation
Experimental: (§1) Cells were harvested by centrifugation at 1,200 rpm at room temperature. Cell pellets were washed with PBS and lysed with assay lysis buffer (50 mM HEPES (N-2-hydroxyethylpiperazine-N′-2-ethanesulfonic acid), pH 7.5; 150 mM NaCl; 1% Triton X-100; 2 mM ATP). Cell lysates were incubated on ice for 30 minutes, mixed by vortex every 5 minutes, and then centrifuged at 12,000 g for 10 minutes. The supernatant was transferred to a 96-well plate. For each assay, 10 μg of total protein were incubated for 1 hour at 37° C. with increasing concentrations (1 nM to 10 μM) of test compound diluted in assay buffer (50 mM Tris-HCl (tris(hydroxymethyl)aminomethane-HCl), pH 7.5; 150 mM NaCl). DMSO alone was used as a control in every assay plate. After incubation, a specific fluorogenic proteasome substrate was added to each assay reaction at a final concentration of 40 μM in a total volume of 100 μL. N-Succinyl-Leu-Leu-Val-Tyr-7-amino-4-methylcoumarin (Suc-Leu-Leu-Val-Tyr-AMC) was used for measuring chymotrypsin-like (CT-L) activity, t-butoxycarbonyl-Leu-Arg-Arg-7-amino-4-methylcoumarin (Boc-Leu-Arg-Arg-AMC) for trypsin-like (T-L) activity, and benzyloxycarbonyl-L-leucyl-L-leucyl-L-glutamyl-7-amino-4-methylcoumarin (Z-Leu-Leu-Glu-AMC) for caspase-like (C-L) activity. The excitation wavelength was set at 360 nm and the fluorescence emission wavelength of AMC was detected at 460 nm. The fluorescence of free AMC released during the enzymatic reaction was measured with a SpectraMax M5 fluorescent spectrophotometric plate reader (Molecular Devices, Sunnyvale, Calif.). AMC release rate was measured at 37° C. in a kinetic mode, recording every 5 minutes for 30 minutes. Experiments were performed in triplicate and repeated at least twice.
(§2) Table 9 summarizes data obtained for representative compounds of Formula I for cell viability and CT-L proteasome activity using OCI-AML-2 and KMS-11 cell lines.

[4] = system: chymotrypsin-like (CT-L) proteasome activity, OCI-AML-2; assay: Proteasome enzymatic activity (tumor cell lysates); format: biochemical, human; details: OCI-AML-2 cell lysate; mean ± standard deviation
Experimental: as §1, §2

[5] = system: SN12C; assay: NCI 60 human tumor cell line screen (SRB); format: cell-based; details: SN12C (Renal Cancer); 48 h
[6] = system: NCI-H522; assay: NCI 60 human tumor cell line screen (SRB); format: cell-based; details: NCI-H522 (Non-Small Cell Lung Cancer); 48 h
[7] = system: HOP-62; assay: NCI 60 human tumor cell line screen (SRB); format: cell-based; details: HOP-62 (Non-Small Cell Lung Cancer); 48 h
[8] = system: NCI-H460; assay: NCI 60 human tumor cell line screen (SRB); format: cell-based; details: NCI-H460 (Non-Small Cell Lung Cancer); 48 h
[9] = system: SR; assay: NCI 60 human tumor cell line screen (SRB); format: cell-based; details: SR (Leukemia); 48 h
[10] = system: SK-MEL-2; assay: NCI 60 human tumor cell line screen (SRB); format: cell-based; details: SK-MEL-2 (Melanoma); 48 h

Q: Which Log10GI50 [1] does the source give for Cc1ncc(C(=O)N[C@@H](COC(F)F)C(=O)N[C@@H](COC(F)F)C(=O)N[C@@H](Cc2ccccc2)C(=O)[C@@]2(C)CO2)s1 [Example 1, 2-methyl-thiazole-5-carboxylic acid ((S)-1-{(S)-1-[(S)-1-benzyl-2-((R)-2-methyloxiranyl)-2-oxo-ethylcarbamoyl]-2-difluoromethoxyethylcarbamoyl}-2-difluoromethoxyethyl)-amide] here?
A: The Log10GI50 was −6.79.

Q: And the Log10LC50 [1]?
A: Its Log10LC50 is −6.02.

Q: And the Log10TGI50 [1]?
A: The Log10TGI50 was −6.41.

Q: What about the Log10GI50 [2] of the same molecule?
A: The Log10GI50 was −7.37.

Q: What about the Log10LC50 [2] of the same molecule?
A: The Log10LC50 was greater than −4.00.

Q: What about the Log10TGI50 [2] of the same molecule?
A: Its Log10TGI50 is greater than −4.00.

Q: And the IC50 [3]?
A: The IC50 was 29.6 ± 3.69 nM.

Q: And the IC50 [4]?
A: The IC50 was 39.2 ± 2.12 nM.

Q: What about the Log10GI50 [5] of the same molecule?
A: The Log10GI50 was −6.54.

Q: And the Log10LC50 [5]?
A: Its Log10LC50 is −4.03.

Q: What about the Log10TGI50 [5] of the same molecule?
A: The Log10TGI50 was −5.29.

Q: And the Log10GI50 [6]?
A: Its Log10GI50 is −6.86.

Q: What about the Log10LC50 [6] of the same molecule?
A: Its Log10LC50 is −4.15.

Q: What about the Log10TGI50 [6] of the same molecule?
A: The Log10TGI50 was −6.15.

Q: And the Log10GI50 [7]?
A: Its Log10GI50 is −6.41.

Q: What about the Log10LC50 [7] of the same molecule?
A: The Log10LC50 was greater than −4.00.

Q: And the Log10TGI50 [7]?
A: Its Log10TGI50 is greater than −4.00.

Q: And the Log10GI50 [8]?
A: Its Log10GI50 is −6.48.

Q: And the Log10LC50 [8]?
A: The Log10LC50 was −5.12.

Q: And the Log10TGI50 [8]?
A: The Log10TGI50 was −5.84.

Q: What about the Log10GI50 [9] of the same molecule?
A: The Log10GI50 was −7.30.

Q: What about the Log10LC50 [9] of the same molecule?
A: Its Log10LC50 is greater than −4.00.

Q: And the Log10TGI50 [9]?
A: Its Log10TGI50 is greater than −4.00.

Q: For CC(C)C[C@H](NC(=O)[C@H](Cc1ccccc1)NC(=O)[C@H](COC(F)F)NC(=O)CN1CCOCC1)C(=O)[C@@]1(C)CO1 [Example 25, (2S)-2-[[(2S)-3-(difluoromethoxy)-2-[(2-morpholinoacetyl)amino]propanoyl]amino]-N-[(1S)-3-methyl-1-[(2R)-2-methyloxirane-2-carbonyl]butyl]-3-phenyl-propanamide], which Log10GI50 [1] is on record?
A: Its Log10GI50 is −7.64.

Q: What about the Log10LC50 [1] of the same molecule?
A: Its Log10LC50 is −6.70.

Q: And the Log10TGI50 [1]?
A: The Log10TGI50 was −7.25.

Q: And the Log10GI50 [2]?
A: Its Log10GI50 is −7.69.

Q: What about the Log10LC50 [2] of the same molecule?
A: The Log10LC50 was greater than −4.00.

Q: What about the Log10TGI50 [2] of the same molecule?
A: Its Log10TGI50 is −7.11.

Q: What about the Log10GI50 [5] of the same molecule?
A: Its Log10GI50 is −7.39.

Q: And the Log10LC50 [5]?
A: The Log10LC50 was −5.15.

Q: And the Log10TGI50 [5]?
A: Its Log10TGI50 is −6.67.

Q: And the Log10GI50 [6]?
A: Its Log10GI50 is −7.67.

Q: And the Log10LC50 [6]?
A: The Log10LC50 was greater than −4.00.

Q: What about the Log10TGI50 [6] of the same molecule?
A: Its Log10TGI50 is −7.19.

Q: What about the Log10GI50 [7] of the same molecule?
A: The Log10GI50 was −7.75.

Q: What about the Log10LC50 [7] of the same molecule?
A: The Log10LC50 was −7.09.

Q: And the Log10TGI50 [7]?
A: The Log10TGI50 was −7.42.

Q: And the Log10GI50 [10]?
A: The Log10GI50 was −7.54.

Q: What about the Log10LC50 [10] of the same molecule?
A: Its Log10LC50 is −5.46.

Q: And the Log10TGI50 [10]?
A: The Log10TGI50 was −7.03.

Q: What about the Log10GI50 [8] of the same molecule?
A: Its Log10GI50 is −7.21.

Q: And the Log10LC50 [8]?
A: The Log10LC50 was −4.13.

Q: What about the Log10TGI50 [8] of the same molecule?
A: Its Log10TGI50 is −6.43.

Q: And the Log10GI50 [9]?
A: Its Log10GI50 is −7.71.

Q: And the Log10LC50 [9]?
A: Its Log10LC50 is greater than −4.00.

Q: And the Log10TGI50 [9]?
A: Its Log10TGI50 is greater than −4.00.

Q: Which results are given for C[C@]1(C(=O)[C@H](Cc2ccccc2)NC(=O)[C@H](COC(F)F)NC(=O)[C@H](COC(F)F)NC(=O)CN2CCOCC2)CO1 [Example 26, (S)-N-{(S)-1-[(S)-1-Benzyl-2-((R)-2-methyl-oxiranyl)-2-oxo-ethylcarbamoyl]-2-difluoromethoxyethyl}-3-difluoromethoxy-2-(2-morpholin-4-yl-acetylamino)-propio-namide]?
A: Log10GI50 [1]: −7.64; Log10LC50 [1]: −6.70; Log10TGI50 [1]: −7.25; Log10GI50 [2]: −7.69; Log10LC50 [2]: >−4.00; Log10TGI50 [2]: −7.11; IC50 [3]: 174 ± 434 nM; IC50 [4]: 358 ± 177 nM; Log10GI50 [5]: −7.39; Log10LC50 [5]: −5.15; Log10TGI50 [5]: −6.67; Log10GI50 [6]: −7.67; Log10LC50 [6]: >−4.00; Log10TGI50 [6]: −7.19; Log10GI50 [7]: −7.75; Log10LC50 [7]: −7.09; Log10TGI50 [7]: −7.42; Log10GI50 [10]: −7.54; Log10LC50 [10]: −5.46; Log10TGI50 [10]: −7.03; Log10GI50 [8]: −7.21; Log10LC50 [8]: −4.13; Log10TGI50 [8]: −6.43; Log10GI50 [9]: −7.71; Log10LC50 [9]: >−4.00; Log10TGI50 [9]: >−4.00

Q: Which results are given for C[C@]1(C(=O)[C@H](Cc2ccccc2)NC(=O)[C@H](Cc2ccccc2)NC(=O)[C@H](COC(F)F)NC(=O)CN2CCOCC2)CO1 [Example 29]?
A: Log10GI50 [1]: −7.20; Log10LC50 [1]: −6.31; Log10TGI50 [1]: −6.70; Log10GI50 [2]: −7.54; Log10LC50 [2]: >−4.00; Log10TGI50 [2]: −7.05; IC50 [3]: 135 ± 12.3 nM; IC50 [4]: 132 ± 10.4 nM; Log10GI50 [5]: −6.92; Log10LC50 [5]: −4.39; Log10TGI50 [5]: −6.38; Log10GI50 [6]: −6.90; Log10LC50 [6]: >−4.00; Log10TGI50 [6]: −6.17; Log10GI50 [7]: −7.31; Log10LC50 [7]: −4.32; Log10TGI50 [7]: −6.53; Log10GI50 [10]: −7.19; Log10LC50 [10]: >−4.00; Log10TGI50 [10]: −6.02; Log10GI50 [8]: −6.49; Log10LC50 [8]: >−4.00; Log10TGI50 [8]: −5.87; Log10GI50 [9]: −7.69; Log10LC50 [9]: >−4.00; Log10TGI50 [9]: −4.36
